Laboratory results from PubChem BioAssay AID2060897 (Molecular Pharmacology Branch, DTP, NCI, 2025).
Each block holds one compound with its values, some of them ahead of it.

Test system: 966289-007-R4-J1-PDC complex spheroid viability
Experiment: Anticancer human tumor 966289-007-R4-J1-PDC patient-derived pancreatic adenocarcinoma cell line growth inhibition [RAS]
Settings: for viability, T/C: stronger effect = lower value
Outline: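 Multi-cell-type spheroids: tumor cells plus HUVEC endothelial cells and mesenchymal stem cells. RAS-pathway inhibitors were combined with targeted agents, each dosed in half-log steps down from clinical Cmax, or from 10 microM when Cmax was unknown.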

[1] = curve of first compound, second compound 0.0316 µM
[2] = curve of first compound, second compound 0.1 µM
[3] = curve of first compound, second compound 0.316 µM
[4] = curve of first compound, second compound 1 µM
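Also: spheroids exposed to agents for one week before readout.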
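For viability, T/C in this document: percent viability relative to DMSO vehicle control wells as 100%.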

IC50 (curve of first compound, second compound 0.00316 µM): > 10000 nM | IC50 (curve of first compound, second compound 0.01 µM): > 10000 nM | IC50 [1]: > 10000 nM | IC50 [2]: > 10000 nM | IC50 [3]: > 10000 nM | IC50 [4]: > 10000 nM
SMILES: CC(Nc1ccc2c(c1)OCCn1cc(N3C(=O)OCC3C(F)F)nc1-2)C(N)=O (stereo not drawn) + C=CC(=O)N1CCN(c2nc(OCC3CCCN3C)nc3c(F)c(-c4nc(N)cc(C)c4C(F)(F)F)c(Cl)cc23)C(C)C1
viability, T/C (second compound 0.00316 µM, first compound 0.0316 µM): 96.2% | viability, T/C (second compound 0.00316 µM, first compound 0.1 µM): 103% | viability, T/C (second compound 0.00316 µM, first compound 0.316 µM): 96.3% | viability, T/C (second compound 0.00316 µM, first compound 1 µM): 96.4% | viability, T/C (second compound 0.00316 µM, first compound 3.16 µM): 101% | viability, T/C (second compound 0.00316 µM, first compound 10 µM): 86.1% | viability, T/C (second compound 0.01 µM, first compound 0.0316 µM): 89.8% | viability, T/C (second compound 0.01 µM, first compound 0.1 µM): 112% | viability, T/C (second compound 0.01 µM, first compound 0.316 µM): 115% | viability, T/C (second compound 0.01 µM, first compound 1 µM): 102% | viability, T/C (second compound 0.01 µM, first compound 3.16 µM): 97.4% | viability, T/C (second compound 0.01 µM, first compound 10 µM): 86.9% | viability, T/C (second compound 0.0316 µM, first compound 0.0316 µM): 99.8% | viability, T/C (second compound 0.0316 µM, first compound 0.1 µM): 110% | viability, T/C (second compound 0.0316 µM, first compound 0.316 µM): 114% | viability, T/C (second compound 0.0316 µM, first compound 1 µM): 111% | viability, T/C (second compound 0.0316 µM, first compound 3.16 µM): 93.2% | viability, T/C (second compound 0.0316 µM, first compound 10 µM): 84.1% | viability, T/C (second compound 0.1 µM, first compound 0.0316 µM): 95.8% | viability, T/C (second compound 0.1 µM, first compound 0.1 µM): 111% | viability, T/C (second compound 0.1 µM, first compound 0.316 µM): 115% | viability, T/C (second compound 0.1 µM, first compound 1 µM): 115% | viability, T/C (second compound 0.1 µM, first compound 3.16 µM): 88.3% | viability, T/C (second compound 0.1 µM, first compound 10 µM): 93.3% | viability, T/C (second compound 0.316 µM, first compound 0.0316 µM): 96.6% | viability, T/C (second compound 0.316 µM, first compound 0.1 µM): 101% | viability, T/C (second compound 0.316 µM, first compound 0.316 µM): 117% | viability, T/C (second compound 0.316 µM, first compound 1 µM): 117% | viability, T/C (second compound 0.316 µM, first compound 3.16 µM): 103% | viability, T/C (second compound 0.316 µM, first compound 10 µM): 98.7% | viability, T/C (second compound 1 µM, first compound 0.0316 µM): 99.8% | viability, T/C (second compound 1 µM, first compound 0.1 µM): 110% | viability, T/C (second compound 1 µM, first compound 0.316 µM): 112% | viability, T/C (second compound 1 µM, first compound 1 µM): 87.1% | viability, T/C (second compound 1 µM, first compound 3.16 µM): 96.5% | viability, T/C (second compound 1 µM, first compound 10 µM): 83.2%

IC50 [1]: 17 nM | IC50 [2]: 15.6 nM | IC50 [3]: 18.3 nM | IC50 [4]: 19.6 nM | IC50 (curve of first compound, second compound 3.16 µM): 19.1 nM | IC50 (curve of first compound, second compound 10 µM): 18.6 nM
SMILES: CC1(C)CCC(Nc2ncc(C(F)(F)F)c(-c3c[nH]c4c(P(C)(C)=O)c(C#N)ccc34)n2)CN1 (stereo not drawn) + C#Cc1c(F)ccc2cc(O)cc(-c3ncc4c(N5CC6CCC(C5)N6)nc(OCC56CCCN5CC(F)C6)nc4c3F)c12
viability, T/C (second compound 0.0316 µM, first compound 0.000949 µM): 113% | viability, T/C (second compound 0.0316 µM, first compound 0.003 µM): 107% | viability, T/C (second compound 0.0316 µM, first compound 0.00949 µM): 80.6% | viability, T/C (second compound 0.0316 µM, first compound 0.03 µM): 19.9% | viability, T/C (second compound 0.0316 µM, first compound 0.0949 µM): 15.4% | viability, T/C (second compound 0.0316 µM, first compound 0.3 µM): 11.9% | viability, T/C (second compound 0.1 µM, first compound 0.000949 µM): 107% | viability, T/C (second compound 0.1 µM, first compound 0.003 µM): 131% | viability, T/C (second compound 0.1 µM, first compound 0.00949 µM): 76.4% | viability, T/C (second compound 0.1 µM, first compound 0.03 µM): 20.8% | viability, T/C (second compound 0.1 µM, first compound 0.0949 µM): 13.4% | viability, T/C (second compound 0.1 µM, first compound 0.3 µM): 11.3% | viability, T/C (second compound 0.316 µM, first compound 0.000949 µM): 102% | viability, T/C (second compound 0.316 µM, first compound 0.003 µM): 134% | viability, T/C (second compound 0.316 µM, first compound 0.00949 µM): 90.3% | viability, T/C (second compound 0.316 µM, first compound 0.03 µM): 20.8% | viability, T/C (second compound 0.316 µM, first compound 0.0949 µM): 13.9% | viability, T/C (second compound 0.316 µM, first compound 0.3 µM): 12.9% | viability, T/C (second compound 1 µM, first compound 0.000949 µM): 106% | viability, T/C (second compound 1 µM, first compound 0.003 µM): 131% | viability, T/C (second compound 1 µM, first compound 0.00949 µM): 89.3% | viability, T/C (second compound 1 µM, first compound 0.03 µM): 27.3% | viability, T/C (second compound 1 µM, first compound 0.0949 µM): 13.8% | viability, T/C (second compound 1 µM, first compound 0.3 µM): 10.3% | viability, T/C (second compound 3.16 µM, first compound 0.000949 µM): 115% | viability, T/C (second compound 3.16 µM, first compound 0.003 µM): 135% | viability, T/C (second compound 3.16 µM, first compound 0.00949 µM): 91.7% | viability, T/C (second compound 3.16 µM, first compound 0.03 µM): 24.1% | viability, T/C (second compound 3.16 µM, first compound 0.0949 µM): 12.2% | viability, T/C (second compound 3.16 µM, first compound 0.3 µM): 12.1% | viability, T/C (second compound 10 µM, first compound 0.000949 µM): 101% | viability, T/C (second compound 10 µM, first compound 0.003 µM): 113% | viability, T/C (second compound 10 µM, first compound 0.00949 µM): 89.8% | viability, T/C (second compound 10 µM, first compound 0.03 µM): 21.9% | viability, T/C (second compound 10 µM, first compound 0.0949 µM): 15.1% | viability, T/C (second compound 10 µM, first compound 0.3 µM): 9.97%

IC50 (curve of first compound, second compound 0.000949 µM): 28.1 nM | IC50 (curve of first compound, second compound 0.003 µM): 32.5 nM | IC50 (curve of first compound, second compound 0.00949 µM): 30.7 nM | IC50 (curve of first compound, second compound 0.03 µM): 25.6 nM | IC50 (curve of first compound, second compound 0.0949 µM): 26.1 nM | IC50 (curve of first compound, second compound 0.3 µM): 25.4 nM
SMILES: CC(C)n1nc(-c2ccc3oc(N)nc3c2)c2c(N)ncnc21 + CCn1c(-c2cc(N3CCN(C)CC3)cnc2C(C)OC)c2c3cc(ccc31)-c1csc(n1)CC(NC(=O)C1CC1C)C(=O)N1CCCC(N1)C(=O)OCC(C)(C)C2
viability, T/C (second compound 0.000949 µM, first compound 0.000316 µM): 89.3% | viability, T/C (second compound 0.000949 µM, first compound 0.001 µM): 116% | viability, T/C (second compound 0.000949 µM, first compound 0.00316 µM): 133% | viability, T/C (second compound 0.000949 µM, first compound 0.01 µM): 78.5% | viability, T/C (second compound 0.000949 µM, first compound 0.0316 µM): 50.5% | viability, T/C (second compound 0.000949 µM, first compound 0.1 µM): 16.2% | viability, T/C (second compound 0.003 µM, first compound 0.000316 µM): 83.3% | viability, T/C (second compound 0.003 µM, first compound 0.001 µM): 128% | viability, T/C (second compound 0.003 µM, first compound 0.00316 µM): 93.6% | viability, T/C (second compound 0.003 µM, first compound 0.01 µM): 108% | viability, T/C (second compound 0.003 µM, first compound 0.0316 µM): 50.6% | viability, T/C (second compound 0.003 µM, first compound 0.1 µM): 18.5% | viability, T/C (second compound 0.00949 µM, first compound 0.000316 µM): 105% | viability, T/C (second compound 0.00949 µM, first compound 0.001 µM): 108% | viability, T/C (second compound 0.00949 µM, first compound 0.00316 µM): 107% | viability, T/C (second compound 0.00949 µM, first compound 0.01 µM): 108% | viability, T/C (second compound 0.00949 µM, first compound 0.0316 µM): 48.5% | viability, T/C (second compound 0.00949 µM, first compound 0.1 µM): 15.2% | viability, T/C (second compound 0.03 µM, first compound 0.000316 µM): 107% | viability, T/C (second compound 0.03 µM, first compound 0.001 µM): 90.8% | viability, T/C (second compound 0.03 µM, first compound 0.00316 µM): 108% | viability, T/C (second compound 0.03 µM, first compound 0.01 µM): 106% | viability, T/C (second compound 0.03 µM, first compound 0.0316 µM): 38.1% | viability, T/C (second compound 0.03 µM, first compound 0.1 µM): 17.4% | viability, T/C (second compound 0.0949 µM, first compound 0.000316 µM): 98% | viability, T/C (second compound 0.0949 µM, first compound 0.001 µM): 117% | viability, T/C (second compound 0.0949 µM, first compound 0.00316 µM): 106% | viability, T/C (second compound 0.0949 µM, first compound 0.01 µM): 112% | viability, T/C (second compound 0.0949 µM, first compound 0.0316 µM): 38.4% | viability, T/C (second compound 0.0949 µM, first compound 0.1 µM): 14.7% | viability, T/C (second compound 0.3 µM, first compound 0.000316 µM): 91.8% | viability, T/C (second compound 0.3 µM, first compound 0.001 µM): 107% | viability, T/C (second compound 0.3 µM, first compound 0.00316 µM): 112% | viability, T/C (second compound 0.3 µM, first compound 0.01 µM): 87.1% | viability, T/C (second compound 0.3 µM, first compound 0.0316 µM): 41.6% | viability, T/C (second compound 0.3 µM, first compound 0.1 µM): 16.6%

IC50 (curve of compound): > 1000 nM
SMILES: C=CC(=O)Nc1cc(Nc2nccc(-c3cn(C)c4ccccc34)n2)c(OC)cc1N(C)CCN(C)C
viability, T/C (compound 0.0316 µM): 100% [middle of 4 runs]
